Counter-ions that a name gives are not always drawn.
Legend:
[1] = tested on: HIV; assay: Anti-HIV activity on the protein level: viral core protein p24 in supernatant of HIV-infected mitogen-stimulated human lymphocytes (ELISA); format: cell-based, HIV (in peripheral human lymphocytes); details: for HIV p24 in supernatant: 10 μM; for inhibition at 10 µM: Human immunodeficiency virus 1, Lymphocyte
Protocol: (§1) The compounds of the present invention were tested for antiviral activity on peripheral human lymphocytes isolated by density gradient centrifugation and stimulated with a mitogen.
(§2) Infection was performed with a standardized preparation of HIV and cells, cultured in the presence of the drug for 4 days.
Individual cultures were established to measure viral replication 2, 3 and 4 days after infection. The amount of viral core protein P 24, synthesized and released by the infected cells, was determined in the supernatant of treated and untreated cells on days 2, 3 and 4 by an Elisa.
(§3) The antiviral effect induced by the tested compounds was calculated from the inhibition of the evaluated parameters (i.e.: P24 or RNA) as compared with infected controls.

[2] = tested on: HIV; assay: Anti-HIV activity on the RNA level: viral RNA synthesized by HIV-infected human lymphocytes (nucleic acid hybridization); format: cell-based, HIV (in peripheral human lymphocytes); details: for HIV RNA: 10 μM; for inhibition at 10 µM: Human immunodeficiency virus 1, Lymphocyte
Protocol: as §1, §2
The total amount of viral RNA synthesized by the infected lymphocytes was determined on day 2, 3 and 4 by a nucleic acid hybridization technique. By including a standard preparation of HIV-RNA, the amount of synthesized RNA was quantified.
as §3

[3] = tested on: peripheral human lymphocytes; assay: Cytotoxicity (10 μM stated to be non cytotoxic); format: cell-based
[4] = tested on: snake venom phosphodiesterase; assay: Enzymatic hydrolysis of the deprotected dinucleotide thiophosphates by snake venom phosphodiesterase (HPLC substrate disappearance); format: biochemical, Crotalus durissus; details: for Reduction in the area of the HPLC peak relatively to the control / Substrate change on enzymatic hydrolysis (in words): 37° C., pH 8
Protocol: The two samples XIIa and XIIb can independently undergo an enzymatic degradation by action of an exonuclease like snake venom phosphodiesterase following the disappearance of starting sample by HPLC along the time. […] Accordingly the configuration RP has to be assigned to XIIa and configuration SP to XIIb.
The relative susceptivity of the two substrates XIIa and XIIb to hydrolysis by snake venom phosphodiesterase was determined by incubating a solution (3 mM) of each substrate in Tris buffer (25 mM) containing MgCl2 (5 mM) at pH 8 with the enzyme (1 mg in 0.5 ml) (from Crotalus durissus) purchased from Boehringer and following the substrate disappearance by HPLC. In particular for each substrate a solution was prepared consisting of 700 μl of buffer, 200 μl of substrate solution plus 50 μl of enzyme solution. For each substrate a control was prepared with the same components and volumes except for the enzyme that was replaced by an equal volume of buffer. The four solutions (the two substrates and the two controls) were incubated at 37° C. taking aliquots from each solution at 0 time, 1 hour, 17 hours. Such aliquots were analyzed by HPLC (Whatman Partisphere C18, eluting with a linear gradient from 10% to 30% of methanol 0.1 M ammonium acetate) at 220 nm.

[5] = 72 h, Day 3, read-out: Inhibition of HIV replication on the protein level
[6] = 96 h, Day 4, read-out: Inhibition of HIV replication on the protein level
[7] = 72 h, Day 3, read-out: Inhibition of HIV replication on the RNA level
[8] = 96 h, Day 4, read-out: Inhibition of HIV replication on the RNA level

Nc1ccn([C@H]2C[C@@H]3O[P@@](O)(=S)OC[C@H]4O[C@@H](n5ccc(N)nc5=O)C[C@@H]4O[P@](O)(=S)OC[C@H]3O2)c(=O)n1 [Compound IIb, Cyclo-2'-deoxy-(SP)-P-thiocytidylyl-(3'→5')-2'-deoxy-(RP)-P-thiocytidylyl-(3'→5'), sodium salt]
HIV p24 in supernatant ([1]; Day 2): 0.0 ng p24/ml | HIV p24 in supernatant ([1]; Day 3, control 2.2 ng p24/ml): 0.0 ng p24/ml | HIV p24 in supernatant ([1]; Day 4, control 21.5 ng p24/ml): 3.7 ng p24/ml | inhibition at 10 µM [1, 5]: 100% | inhibition at 10 µM [1, 6]: 83% | HIV RNA ([2]; Day 2): 0 pg RNA/ml | HIV RNA ([2]; Day 3, control 226 pg RNA/ml): 0 pg RNA/ml | HIV RNA ([2]; Day 4, control 612 pg RNA/ml): 266 pg RNA/ml | inhibition at 10 µM [2, 7]: 100% | inhibition at 10 µM [2, 8]: 56% | Cytotoxicity [3]: non cytotoxic

Nc1ccn([C@H]2C[C@H](O[P@](O)(=S)OC[C@H]3O[C@@H](n4ccc(N)nc4=O)C[C@@H]3O)[C@@H](CO)O2)c(=O)n1 [XIIa, 2'-deoxy-(RP)-P-thiocytidylyl-(3'→5')-2'-deoxycytidine sodium salt]
Relative rate of enzymatic degradation ([4]; XIIa versus XIIb, snake venom phosphodiesterase): degraded much faster than the sample XIIb | Reduction in the area of the HPLC peak relatively to the control ([4]; after 1 hour): 50% | Reduction in the area of the HPLC peak relatively to the control ([4]; after 17 hours): 72%

Nc1ccn([C@H]2C[C@H](O[P@@](O)(=S)OC[C@H]3O[C@@H](n4ccc(N)nc4=O)C[C@@H]3O)[C@@H](CO)O2)c(=O)n1 [XIIb, 2'-deoxy-(SP)-P-thiocytidylyl-(3'→5 '-2-deoxycytidinesodium salt]
Substrate change on enzymatic hydrolysis (in words) ([4]; after 1 hour): almost unchanged | Substrate change on enzymatic hydrolysis (in words) ([4]; after 17 hours): almost unchanged

Nc1ccn([C@H]2C[C@@H]3O[P@](O)(=S)OC[C@H]4O[C@@H](n5ccc(N)nc5=O)C[C@@H]4O[P@](O)(=S)OC[C@H]3O2)c(=O)n1 [Compound IIa, Cyclo-2'-deoxy-(RP)-P-thiocytidylyl-(3'→5')-2'-deoxy-(RP)-P-thiocytidylyl-(3'→5'), sodium salt]
HIV p24 in supernatant ([1]; Day 2): 0.0 ng p24/ml | HIV p24 in supernatant ([1]; Day 3, control 2.2 ng p24/ml): 0.1 ng p24/ml | HIV p24 in supernatant ([1]; Day 4, control 21.5 ng p24/ml): 17.1 ng p24/ml | inhibition at 10 µM [1, 5]: 97% | inhibition at 10 µM [1, 6]: 20% | HIV RNA ([2]; Day 2): 0 pg RNA/ml | HIV RNA ([2]; Day 3, control 226 pg RNA/ml): 188 pg RNA/ml | HIV RNA ([2]; Day 4, control 612 pg RNA/ml): 465 pg RNA/ml | inhibition at 10 µM [2, 7]: 17% | inhibition at 10 µM [2, 8]: 24%

Reference: US5547941A, “Cyclic dinucleoside diphosphorothioates, related compounds and pharmaceutical compositions” (priority 1991, dated 1996)
